Source: article PMC7191901, “Hybrid inhibitors of DNA and HDACs remarkably enhance cytotoxicity in leukaemia cells” (Journal of Enzyme Inhibition and Medicinal Chemistry, 2020)
Entries after “also recorded” stand apart in the source; their conditions may differ. Where two headings read alike, the source gives them in different places.

Tests used:
MCF-7 cells = assay: Cell proliferation (MTS) assay, MCF-7; type: cell-based; conditions: Homo sapiens, MCF7, 72 h, read-out: GI50 values, MCF-7
[1] = test system: Ac-α-tubulin and Ac-histone H3; type: cell-based, human
A549 cells = assay: cells; type: cell-based; conditions: Homo sapiens, A549, 72 h, read-out: GI50, A549
A2780 cells = assay: Cell proliferation (MTS) assay, A2780; type: cell-based; conditions: Homo sapiens, read-out: GI50 values, A2780
MCF-7/ADR cells = assay: cells; type: cell-based; conditions: Homo sapiens, NCI/ADR-RES, 72 h, read-out: GI50, MCF-7/ADR
U266 cells = assay: cells; type: cell-based; conditions: Homo sapiens, U-266, 72 h, read-out: GI50, U266
HL-60 cells [2] = type: cell-based, human
HL-60 cells [3] = type: cell-based, human; remark: listed apart in the source
H1975 cells = assay: cells; type: cell-based; conditions: Homo sapiens, NCI-H1975, 72 h, read-out: GI50, H1975
HL-60 cells [4] = assay: Cell proliferation (MTS) assay, HL-60; type: cell-based; conditions: Homo sapiens, read-out: GI50 values, HL-60
MDA-MB-231 cells = assay: Cell proliferation (MTS) assay, MDA-MB-231; type: cell-based; conditions: Homo sapiens, read-out: GI50 values, MDA-MB-231
[5] = test system: PARP, caspase 3, and caspase 8; type: cell-based, human
U-937 cells = assay: Cell proliferation (MTS) assay, U-937; type: cell-based; conditions: Homo sapiens, read-out: GI50 values, U-937
[6] = A2780, 3 days (72 h), MTS assay
[7] = HL-60, 3 days (72 h), MTS assay
[8] = MDA-MB-231, 3 days (72 h), MTS assay
[9] = U-937, 3 days (72 h), MTS assay

GI50 (MCF-7 cells; 3 days, MTS assay) [µM] | GI50 (A2780 cells; [6]) [µM] | GI50 (HL-60 cells [4]; [7]) [µM] | GI50 (MDA-MB-231 cells; [8]) [µM] | GI50 (U-937 cells; [9]) [µM] | Compound | GI50 (MCF-7 cells) [µM] | acetylation of α-tubulin and histone H3 [1] | GI50 (A549 cells) [µM] | GI50 (A2780 cells; A2780, 72 h) [µM] | GI50 (MCF-7/ADR cells) [µM] | GI50 (U266 cells) [µM] | G2/M fraction (HL-60 cells [2]) [%] | % DNA content in the tail (HL-60 cells [3]) [%] | GI50 (H1975 cells) [µM] | GI50 (HL-60 cells [4]; HL-60, 72 h) [µM] | GI50 (MDA-MB-231 cells; MDA-MB-231, 72 h) [µM] | concentration required to induce the cleavage of PARP, caspase 3, and caspase 8 [5] [µM] | GI50 (U-937 cells; U-937, 72 h) [µM]
 |  |  |  |  | O=C(O)CCCc1ccc(N(CCCl)CCCl)cc1 [Chlorambucil] | 393 | failed to induce the acetylation of α-tubulin and histone H3; also recorded: little acetylation of α-tubulin and histone H3 | > 100 | > 100 | > 100 | > 100 | 32.2 | 2.1 | > 100 | 21.1 | > 100 | 30 | 37.7
393 | > 100 | 60.5 | > 100 | 93 | Nc1ccc(CCCC(=O)NO)cc1 [Compound 7, 4–(4-Aminophenyl)-N-hydroxybutanamide] |  |  |  |  |  |  |  |  |  |  |  |  | 
282 | 81 | 70.3 | 85.1 | > 100 | CCN(CC)c1ccc(CCCC(=O)NO)cc1 [Compound 8a, 4–(4-(Diethylamino)phenyl)-N-hydroxybutanamide] |  |  |  |  |  |  |  |  |  |  |  |  | 
37.8 | 7.79 | 34.4 | 66.8 | 40.2 | CCCN(CCC)c1ccc(CCCC(=O)NO)cc1 [Compound 8b, 4–(4-(Dipropylamino)phenyl)-N-hydroxybutanamide] |  |  |  |  |  |  |  |  |  |  |  |  | 
